These results are taken from paper PMC7985297 (Communications Biology, 2021).

Experiment [1] concerns the target T1, recombinant human Pin1 protein (Homo sapiens, UniProt Q13526).
T1 construct: purchased Abcam ab51230
As to the kind of experiment: Pin1 inhibition assay (fluorometric isomerase activity). Format: biochemical. The conditions noted are these: compounds 0–50 µM, 500 ng Pin1, Supplementary Fig. 2. As to the method:
The effect of inhibitors on Pin1 isomerase activity was evaluated using a fluorometric Pin1 Assay Kit (AnaSpec, Fremont, California), according to the manufacturer’s protocol. […] Fluorescence intensity was measured with excitation wavelength at 490 nm and emission wavelength at 520 nm on an Infinite M1000 plate reader (Tecan, Männedorf, Switzerland) at 37 °C. Measurements were recorded every 5 min for up to 1 h.
Fluorescent polarization-based assay
the isomerase activity of Pin1. Each reaction contains 500 ng of
recombinant human Pin1 protein incubated with an inhibitor and a
fluorogenic substrate at 37°C. The uncatalyzed reaction represents
the intrinsic cis/trans isomerization of the substrate without Pin1
separate experiments with the correlation performed in duplicate
wells. RFU, relative fluorescent units.
(1 picture or pasted object on this page, not shown here)

In a further experiment the test system is PC-3 cells. Kind of experiment: BrdU incorporation assay, PC-3. The class given is cell-based, human. The conditions noted are these: ATRA 10 µM; for BrdU incorporation, PC-3 (Fig. 4c): − R1881, ENZ 10 µM, EPI-002 25 µM, JUG 20 µM. As to the method:
Cells were treated with the inhibitors and stimulated with 1 nM of R1881 (+) or vehicle (−) for 24 to 72 h. Each data point represents the average from an independent experiment where the error bars show the mean ± s.e.m.
BrdU incorporation was determined with the colorimetric BrdU ELISA kit (Roche Diagnostics), according to the manufacturer’s protocol. In brief, cells were seeded in 96-well plates (LNCaP, 5000/well; LN95, 8000/well; PC-3 and DU145, 4000/wells) in media with reduced serum (0.5–1%). On the following day, cells were pre-treated with test compounds for 1 h and then incubated with 0.1 nM of R1881. After the indicated incubation times, cells were labeled with 10 μM of BrdU for 2 h and then fixed for the assay.

Another experiment concerns LN95-D3 cells. Kind of experiment: Cell cycle analysis by flow cytometry, LN95-D3 subline. The class given is cell-based, human. To be noted: LN95-D3, absence of androgen, 48 h. Background: Flow cytometry measures light scatter and fluorescence of single cells or particles in a stream.
Experiment [2] deals with Pin1, Cyclin D1, Skp2 and AR in LN95-D3 tumors. Kind of experiment: Western blot of harvested LN95-D3 xenograft tumors (Pin1, Cyclin D1, Skp2, AR). Format: in vivo, mice. To be noted: ATRA pellets compared to placebo. As to the method:
Scale bars represent 5 mm (f) western blot analysis showing the expression of Pin1, Cyclin D1, Skp2, and AR from representative tumors. Quantification of the data is shown for g Pin1 and h Skp2, where the error bars represent the mean ± s.e.m.
All experiments involving animals conform to the relevant regulatory and ethical standards and were approved by the University of British Columbia Animal Care Committee (A18-0077). Metacam (1 mg/kg, 0.05 mL/10 g of body weight) was administered subcutaneously prior to any surgery. Animals were anesthetized with isoflurane and euthanized by CO2. Six–eight-week-old male (NOD-scid IL2Rgamma^null) mice were maintained in the Animal Care Facility at the British Columbia Cancer Research Centre. Mice were castrated 2 weeks before they were subcutaneously inoculated in the right flank with two million LN95-D3 cells in a 1:1 volume of matrigel (Corning Discovery Labware, Corning, NY). […] Tumors were excised 1 day after the last dose and prepared for western blot analysis and immunohistochemistry.

Experiment [3] deals with Ki-67, PSA and AR in LN95-D3 xenografts. Kind of experiment: Immunohistochemistry of LN95-D3 xenografts (Ki-67, PSA, AR). The class given is in vivo, mice. The source says:
Fig. 8 Immunohistochemistry of LN95-D3 xenografts. a Representative images showing the histomorphology and expression of Ki-67, PSA, and AR from harvested tumors. Scale bars represent 100 µm. Statistical analysis for b the percentage of Ki-67-positive tumor cells and for the expression of c PSA and d AR. Error bars represent the mean ± s.d.
Sections were cut from formalin-fixed, paraffin-embedded tumor tissue at a thickness of 5 µm, deparaffinized in xylene, and then rehydrated in alcohols and distilled water. Endogenous peroxidase was blocked by incubating with a 3% hydrogen peroxide solution for 5 min. […] PSA was detected using a monoclonal mouse anti-human PSA antibody concentrate (ER-PR8; Dako). A negative control without the primary antibody was included for each sample on the same slide. Antigen was detected with 3,3-diaminobenzidine (DAB) and hematoxylin was used for counterstaining. Images were captured on an Axio Imager M2 microscope (Zeiss) at ×200 magnification. The percentage of Ki-67-positive cells was determined with ImageJ using the Cell Counter plugin. At least 1000 cells were scored from three images of representative tumors for each treatment group. The intensity of DAB staining for PSA was quantified by ImageJ using color deconvolution and measuring the mean gray value for the DAB image, where optical density = log(max intensity/mean intensity), and a max intensity of 255 for an 8-bit image.

A further experiment addresses T2, YFP-AR fusion protein (Homo sapiens, UniProt P10275).
T2 construct: expressed in transfected cells; host or cells: LNCaP
The class given is cell-based. As to the method: Scores greater than 1 indicate nuclear localization. At least 50 cells were scored for each treatment.
AR translocation assays were performed by a modified protocol from Myung et al.[9]. Approximately 2.8 × 10^5 LNCaP cells were grown on coverslips in six-well plates and transiently transfected with 2 μg of an expression vector encoding a YFP-AR fusion protein. On the following day, cells were pre-treated with the indicated compounds for 1 h and stimulated with R1881 (1 nM) or a vehicle containing ethanol for 3 h. After incubating with compounds, cells were fixed with 4% paraformaldehyde, washed twice with PBS, and then counterstained with DAPI. Slides were examined on an Axiovert 200 Fluorescence Microscope (Zeiss, Oberkochen, Germany). The ratio of the YFP signal in the nucleus relative to the cytoplasm was quantified with ImageJ software. For each image, background fluorescence was measured and subtracted from experimental values. A total of at least 50 cells from nine images containing six or more cells per field were quantified to determine the nuclear to cytoplasmic YFP ratio for each treatment group.

Experiment [4] has as its system phosphorylated MAPK (p44 and p42) and STAT3 (Tyr705 and Ser727). Kind of experiment: Western blot of phosphorylated MAPK and STAT3 after IL-6 in LNCaP cells. Format: cell-based, human. The conditions noted are these: juglone 20 µM, IL-6 50 ng/mL 15 min. As to the method:
Fig. 3 Pin1 interacts with the AR NTD and regulates transactivation. a, b Transactivation assays performed in LNCaP cells expressing a vector encoding the human AR NTD fused to a Gal4 DNA-binding domain (Gal4-ARN). […] Input samples show Pin1 expression from lysates before the pull-down. i Co-immunoprecipitation assay showing AR protein co-immunoprecipitated with STAT3 from LNCaP cells incubated with EPI-002 (EPI, 35 μM), juglone (JUG, 30 μM), or vehicle (VEH, DMSO), and IL-6 (50 ng/mL) for 6 h. j, k Levels of phosphorylated MAPK (isoforms p44 and p42) and phosphorylated STAT3 (Tyr705 and Ser727) from LNCaP cells pre-treated with juglone (20 µM) and then stimulated with IL-6 (50 ng/mL) for 15 min. Error bars show the mean ± s.e.m. *P < 0.05, **P < 0.01, ***P < 0.001; ns not significant.
For orientation: In western blotting, separated proteins are transferred to a membrane and probed.

Several values for one entry are separate records, joined by “and”; a condition that tells them apart may be missing. Equal entries are not always repeated. Entries after “also recorded” stand apart in the source; their conditions may differ.

T2 sequence (P10275 whole entry, the tested form may be a part): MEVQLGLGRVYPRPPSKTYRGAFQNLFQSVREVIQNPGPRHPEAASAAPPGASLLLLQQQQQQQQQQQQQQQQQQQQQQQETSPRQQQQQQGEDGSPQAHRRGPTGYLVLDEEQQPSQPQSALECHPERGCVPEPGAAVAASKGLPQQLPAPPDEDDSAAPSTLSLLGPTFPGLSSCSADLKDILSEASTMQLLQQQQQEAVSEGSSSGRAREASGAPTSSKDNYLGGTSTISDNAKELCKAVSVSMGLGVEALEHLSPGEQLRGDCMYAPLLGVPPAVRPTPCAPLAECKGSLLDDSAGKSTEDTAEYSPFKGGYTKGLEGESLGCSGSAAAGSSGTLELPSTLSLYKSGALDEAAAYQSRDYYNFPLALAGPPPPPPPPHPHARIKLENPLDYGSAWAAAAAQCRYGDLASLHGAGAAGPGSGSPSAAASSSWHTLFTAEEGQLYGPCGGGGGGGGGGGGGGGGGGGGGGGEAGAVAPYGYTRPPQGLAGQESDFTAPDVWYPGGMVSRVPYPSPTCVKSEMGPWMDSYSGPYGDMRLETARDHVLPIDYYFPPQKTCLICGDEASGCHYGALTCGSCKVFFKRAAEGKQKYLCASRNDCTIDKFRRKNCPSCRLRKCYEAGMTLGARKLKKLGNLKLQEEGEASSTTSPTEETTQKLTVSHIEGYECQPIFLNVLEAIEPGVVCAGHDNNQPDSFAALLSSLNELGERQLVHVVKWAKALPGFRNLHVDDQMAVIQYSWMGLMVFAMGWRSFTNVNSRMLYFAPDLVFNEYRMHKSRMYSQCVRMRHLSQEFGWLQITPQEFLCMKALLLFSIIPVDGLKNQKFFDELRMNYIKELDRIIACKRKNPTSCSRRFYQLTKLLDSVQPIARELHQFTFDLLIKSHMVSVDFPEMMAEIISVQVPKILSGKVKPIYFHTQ
T1 sequence (Q13526 whole entry): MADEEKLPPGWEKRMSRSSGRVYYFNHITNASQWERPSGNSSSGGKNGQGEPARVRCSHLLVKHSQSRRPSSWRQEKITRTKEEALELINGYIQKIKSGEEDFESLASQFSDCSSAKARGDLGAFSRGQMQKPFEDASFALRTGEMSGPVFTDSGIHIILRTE

`CC1=C(/C=C/C(C)=C/C=C/C(C)=C/C(=O)O)C(C)(C)CCC1` [ATRA, all-trans retinoic acid]: the “effect on isomerase activity of Pin1” value in experiment [1] is “inhibited the isomerase activity of Pin1 in a dose-dependent manner”. Also, in the experiment with PC-3 cells, the “effect on proliferation of PC-3 cells” value is “did not impact the proliferation of either PC-3 or DU145 cells”; the “BrdU incorporation, PC-3 (Fig. 4c)” value was 1.204 and 0.885 and 0.987 and 1.277. For the same compound, in the experiment with LN95-D3 cells, the “effect on cell cycle distribution” value was “reduced the S phase and increased the G1 population”. For the same compound, in experiment [2], the “Pin1 (and cyclin D1) levels in xenografts” value was “decrease in Pin1 levels; also recorded: decreased levels of Pin1 and its target cyclin D1”. Also, in experiment [3] (LN95-D3 xenografts), the “effect on number of Ki-67-positive tumor cells” value is recorded as “decreased the number of Ki-67-positive tumor cells in xenografts” and the “levels of AR protein in xenografts (IHC)” value is “decreased slightly”. For the same compound, the “percentage of Ki-67-positive tumor cells (Fig. 8b)” value in experiment [3] (LN95-D3 xenografts, ATRA 5 mg pellet, EPI-7170 30 mg/kg/d, one value per tumor, listed as CMC ATRA) was 8.32% and 15.81% and 16.91%. Further, the “effect on PSA expression in xenografts (IHC)” value in experiment [3] (compared to the control) is reported as “decreased”.
Consider `O=C1C=CC(=O)c2c(O)cccc21` [juglone], for which the “effect on isomerase activity of Pin1” value in experiment [1] is listed as “inhibited the isomerase activity of Pin1 in a dose-dependent manner”. For the same compound, on YFP-AR fusion protein, the “YFP-AR localization, ratio of YFP intensity nucleus to cytosol (Fig. 2h), EtOH” value is 0.76 and 0.781 and 0.791; the “YFP-AR localization, ratio of YFP intensity nucleus to cytosol (Fig. 2h), R1881” value was 1.983 and 2.303 and 2.076. Moreover, in experiment [4], the “effect on IL-6-induced phosphorylation of MAPK and STAT3” value was “did not prevent phosphorylation of MAPK (isoforms p44 and p42) or STAT3 (Tyr705 and Ser727)”. Also, the “BrdU incorporation, PC-3 (Fig. 4c)” value in the experiment on PC-3 cells (listed as JUG) is 0.17 and 0.16 and 0.171 and 0.227.
